Measurements taken from patent US9801383B2, “Synergistic pesticidal compositions and related methods” (priority 2013, dated 2017).

How the values were obtained:
Type in all cases: in vivo
[1] = test system: brown stink bug, Euschistus heros; assay: Bean piece dip bioassay against brown stink bug; details: single active
Description: (§1) The active compositions were formulated in a 10% acetone solution with 0.025% non-ionic surfactant, TWEEN® 20. Bean pieces (about one inch-long) were used for the tests. Four bean pieces were placed in each tested active solution and left there for 10 minutes. Bean pieces were taken out of the active solution, and each piece was placed in a well in a 32-well tray and allowed to air dry. Three third-instar nymphs of brown stink bug, Euschistus heros, were infested into each well.
A pesticidal composition formulated in a 10% acetone solution with 0.025% non-ionic surfactant, TWEEN® 20 were tested against brown stink bugs, Euschistus heros, according to the procedure described in example 8A.

[2] = test system: plant bugs, Lygus hesperus; assay: Bean piece dip bioassay against Western plant bugs; details: single active
Description: as §1, with “Western plant bugs, Lygus hesperus,” for “brown stink bug, Euschistus heros,”

[3] = test system: Western flower thrips, Frankliniella occidentalis; assay: Cotton leaf punch dip bioassay against Western flower thrips; details: single active
Description: (§2) The active compositions were formulated in a 10% acetone solution with 0.025% non-ionic surfactant, TWEEN® 20. Cotton leaf punches were used for bioassays. Two cotton leaf punches were placed in each solution and left there for 10 minutes. Leaves were taken out of the solution, placed on a piece of filter paper in separated Petri dishes, and air dried. Each leaf disc was considered a repetition. Five nymphs of Western flower thrips, Frankliniella occidentalis, were infested per repetition.
as §2, with “compounds” for “compositions”

[4] = test system: diamondback moth, Plutella xylostella; assay: Cabbage plant track-sprayer bioassay against diamondback moth; details: single active, 0.0025 weight %, second instar
Description: A pesticidal composition was prepared by thoroughly mixing about 0.04 weight % of N-(3-chloro-1-(pyridin-3-yl)-1H-pyrazol-4-yl)-N-ethyl-3-((3,3,3-trifluoropropyl)sulfinyl) propanamide (hereinafter “compound II”) with about 0.000156 weight % of chlorpyrifos.
The bioassays were performed for different active compounds. Cabbage plants with about two to three new-growth-true leaf stage were treated with different active compounds using a track sprayer application at 400 L/Ha spray volume. Three second instar diamondback moth, Plutella xylostella, were infested onto each leaf disc. The percent control of the pesticidal composition against diamondback moth, Plutella xylostella, was determined as the “Observed” action, and compared to those obtained by using about 0.0025 weight % of compound II, and using about 0.0025 weight % of chlorpyrifos alone. The “Colby's Expected Action” was calculated using Colby's equation as discussed previously.

[5] = 0.04 weight %, third-instar nymphs

SMILES	% Control Four Days After Treatment ([1]; 0.000156 weight %)	% Control Four Days After Treatment ([1]; 0.000156 weight %, listed as chlorpyrifos)	% Control Four Days After Treatment ([1]; 0.000625 weight %)	% Control Three Days After Treatment ([2]; 0.0003125 weight %)	% Control Three Days After Treatment ([3]; 0.0000049 weight %)	% Control Three Days After Treatment ([3]; 0.0000049 weight %, listed as chlorpyrifos)	% Control Three Days After Treatment ([3]; 0.0000195 weight %)	% Control Three Days After Treatment ([3]; 0.0003125 weight %)	% Control Three Days After Treatment ([3]; 0.00125 weight %)	% Control Three Days After Treatment [4]	% Control Three Days After Treatment ([4]; listed as chlorpyrifos)	% Control Three Days After Treatment [2, 5]	% Control Three Days After Treatment ([3]; 0.04 weight %, nymphs)	% Control Three Days After Treatment ([3]; 0.04 weight %, nymphs, listed as compound II)	% Control Four Days After Treatment [1, 5]
CCOP(=S)(OCC)Oc1nc(Cl)c(Cl)cc1Cl [Chlorpyrifos, O,O-diethyl O-3,5,6-trichloropyridin-2-yl phosphorothioate]	0%	no activity	92%	50%	0%	no activity	20%	70%	80%	0%	substantially no pesticidal activity				
CCN(C(=O)CC[S+]([O-])CCC(F)(F)F)c1cn(-c2cccnc2)nc1Cl (centres unmarked) [Compound II, N-(3-chloro-1-(pyridin-3-yl)-1H-pyrazol-4-yl)-N-ethyl-3-((3,3,3-trifluoropropyl)sulfinyl)propanamide]										substantially no pesticidal activity		0%	0%	no activity	
CCN(C(=O)CCSCCC(F)(F)F)c1cn(-c2cccnc2)nc1Cl [Compound I, N-(3-chloro-1-(pyridin-3-yl)-1H-pyrazol-4-yl)-N-ethyl-3-((3,3,3-trifluoropropyl)thio)propanamide]													20%		no activity
